The subject of the assay is apoptosome. The experiment in a line: Co-immunoprecipitation of apoptosome proteins with Apaf-1 in P5 cells. It counts as cell-based, human. To be noted: carcinoma cells (P5), cisplatin, 24 h; Fig. 5b. The method, then:
• (a) P693 and CEM cells were treated with cisplatin (2 µg/ml) in the absence or presence of DEX (1 µM) as indicated. 24 and 48 h following treatment cells were lysed and caspase-9 activity was determined using a fluorescent caspase-9 assay and spectroscopy. • (b) P5 and CEM cells were treated as described above. 24 h after stimulation Apaf-1 was immunoprecipitated from the cell extracts using a […]. Aliquotes of the precipitates were separated by three different gels and analysed by Western blotting using rabbit polyclonal Apaf-1, mAb cytochrome c or caspase-9 antibodies. The antibody heavy chain band (IgGH) ensures equal conditions. […]
• (A) Cell culture. […] The mice were given 0.28 mg/L DEX in drinking water, and the amount of water consumed was monitored. […] The tumour volumes were measured using callipers, and calculated using, as an approximation, the formula for volume of a hemi-ellipsoid: π(width^2 x length)/6. […] Early apoptotic changes were identified by staining of cells with fluoresceinthiocyanate (FITC)-conjugated annexin V and propidium iodide (Becton Dickinson, Heidelberg, Germany) and analysed by flow cytometry (FACScan, Becton Dickinson) as described (Herr et al., EMBO J. 16 (1997), 6200-6208) • (E) Immunohistochemistry. […] Bound antibodies were detected by FITC conjugated anti-mouse or anti-rabbit IgG (Molecular Probes Europe, Leiden, The Netherlands). […]

For the compound `N.N.[Cl][Pt][Cl]` [cisplatin], the “amounts of immunoprecipitated apoptosome members (APAF-1, caspase-9, cytochrome c)” value was “strong induction in the amounts of APAF-1, caspase-9 and cytochrome c”.

Values taken from patent EP1283052A1, “Pharmaceutical composition containing caspase-8 and /or caspase-9 useful for overcoming glucocorticoid- and cancer therapy-induced apoptosis of tumours” (Deutsches Krebsforschungszentrum Stiftung des öffentlichen …, priority 2001, dated 2003).
